From patent US20100267561A1, “HERBICIDAL PYRIDAZINONE DERIVATIVES” (priority 2007, published 2010)

How the values were obtained:
Assay in all cases: Test B pre-/postemergence plant response
Assay type in all cases: in vivo
[1] = tested on: woolly cupgrass (Eriochloa villosa)
Text: (§1) Seeds of plant species selected from blackgrass (Alopecurus myosuroides), downy bromegrass (Bromus tectorum), green foxtail (Setaria viridis), Italian ryegrass (Lolium multiflorum), wheat (Triticum aestivum), wild oat (Avena fatua), catchweed bedstraw (Galium aparine), bermudagrass (Cynodon dactylon), surinam grass (Brachiaria decumbens), cocklebur (Xanthium strumarium), corn (Zea mays), large crabgrass (Digitaria sanguinalis), woolly cupgrass (Eriochloa villosa), giant foxtail (Setaria faberii), goosegrass (Eleusine indica), johnsongrass (Sorghum halepense), kochia (Kochia scoparia), lambsquarters (Chenopodium album), morningglory (Ipomoea coccinea), eastern black (E.B.) nightshade (Solanum ptycanthum), yellow nutsedge (Cyperus esculentus), pigweed (Amaranthus retroflexus), common ragweed (Ambrosia elation), Russian thistle (Salsola iberica), soybean (Glycine max), common (oilseed) sunflower (Helianthus annuus), and velvetleaf (Abutilon theophrasti) were planted and treated preemergence with test chemicals formulated in a non-phytotoxic solvent mixture which included a surfactant.
(§2) At the same time, plants selected from these crop and weed species and also winter barley (Hordeum vulgare), canarygrass (Phalaris minor), chickweed (Stellaria media) and windgrass (Apera spica-venti) were treated with postemergence applications of some of the test chemicals formulated in the same manner. Plants ranged in height from 2 to 18 cm (1- to 4-leaf stage) for postemergence treatments.
(§3) Plant species in the flooded paddy test consisted of rice (Oryza sativa), umbrella sedge (Cyperus difformis), ducksalad (Heteranthera limosa) and barnyardgrass (Echinochloa crus-galli) grown to the 2-leaf stage for testing. At time of treatment, test pots were flooded to 3 cm above the soil surface, treated by application of test compounds directly to the paddy water, and then maintained at that water depth for the duration of the test. Treated plants and controls were maintained in a greenhouse for 13 to 15 days, after which time all species were compared to controls and visually evaluated. Plant response ratings, summarized in Table B, are based on a scale of 0 to 100 where 0 is no effect and 100 is complete control. A dash (-) response means no test result.

kochia (Kochia scoparia) = tested on: kochia (Kochia scoparia)
Text: as §1, §2, §3

[2] = tested on: common ragweed (Ambrosia elation)
Text: as §1, §2, §3

[3] = tested on: giant foxtail (Setaria faberii)
Text: as §1, §2, §3

[4] = tested on: downy bromegrass (Bromus tectorum)
Text: as §1, §2, §3

wild oat (Avena fatua) = tested on: wild oat (Avena fatua)
Text: as §1, §2, §3

[5] = tested on: lambsquarters (Chenopodium album)
Text: as §1, §2, §3

[6] = tested on: blackgrass (Alopecurus myosuroides)
Text: as §1, §2, §3

[7] = tested on: catchweed bedstraw (Galium aparine); conditions: Preemergence
Text: as §1, §2, §3

[8] = tested on: yellow nutsedge (Cyperus esculentus)
Text: as §1, §2, §3

[9] = tested on: common (oilseed) sunflower (Helianthus annuus); conditions: Preemergence
Text: as §1, §2, §3

[10] = tested on: pigweed (Amaranthus retroflexus)
Text: as §1, §2, §3

corn (Zea mays) = tested on: corn (Zea mays)
Text: as §1, §2, §3

[11] = tested on: velvetleaf (Abutilon theophrasti)
Text: as §1, §2, §3

[12] = Postemergence, 62 g ai/ha, scale 0 to 100
[13] = Postemergence, 125 g ai/ha, scale 0 to 100
[14] = Postemergence, 250 g ai/ha, scale 0 to 100
[15] = Preemergence, 31 g ai/ha, 0 to 100 scale, 0 no effect, 100 complete control
[16] = Preemergence, 62 g ai/ha, scale 0 to 100
[17] = Preemergence, 125 g ai/ha, scale 0 to 100
[18] = Preemergence, 250 g ai/ha, scale 0 to 100
[19] = Postemergence, 31 g ai/ha, scale 0 to 100, 0 no effect, 100 complete control
[20] = 31 g ai/ha, 0 to 100 scale, 0 no effect, 100 complete control

Cc1nn(C)c(=O)c(-n2nc(-c3ccc(Cl)cc3)cc2C)c1O [Compound 15]
Plant response rating, Cupgrass, Woolly [1, 12]: 100
Plant response rating, Cupgrass, Woolly [1, 13]: 100
Plant response rating, Cupgrass, Woolly [1, 14]: 100
Plant response rating, Cupgrass, Woolly [1, 15]: 60
Plant response rating, Cupgrass, Woolly [1, 16]: 85
Plant response rating, Cupgrass, Woolly [1, 17]: 90
Plant response rating, Cupgrass, Woolly [1, 18]: 98
Plant response rating, Kochia (kochia (Kochia scoparia); [19]): 0
Plant response rating, Kochia (kochia (Kochia scoparia); [12]): 0
Plant response rating, Kochia (kochia (Kochia scoparia); [13]): 0
Plant response rating, Kochia (kochia (Kochia scoparia); [14]): 0
Plant response rating, Kochia (kochia (Kochia scoparia); [16]): 0
Plant response rating, Ragweed [2, 19]: 0
Plant response rating, Ragweed [2, 12]: 0
Plant response rating, Ragweed [2, 13]: 0
Plant response rating, Ragweed [2, 14]: 40
Plant response rating, Ragweed [2, 15]: 0
Plant response rating, Ragweed [2, 16]: 0
Plant response rating, Ragweed [2, 17]: 0
Plant response rating, Ragweed [2, 18]: 0
Plant response rating, Foxtail, Giant [3, 19]: 95
Plant response rating, Foxtail, Giant [3, 12]: 100
Plant response rating, Foxtail, Giant [3, 13]: 100
Plant response rating, Foxtail, Giant [3, 14]: 100
Plant response rating, Foxtail, Giant [3, 15]: 90
Plant response rating, Foxtail, Giant [3, 16]: 100
Plant response rating, Foxtail, Giant [3, 17]: 100
Plant response rating, Foxtail, Giant [3, 18]: 100
Plant response rating, Bromegrass, Downy [4, 19]: 10
Plant response rating, Bromegrass, Downy [4, 12]: 15
Plant response rating, Bromegrass, Downy [4, 13]: 45
Plant response rating, Bromegrass, Downy [4, 14]: 60
Plant response rating, Bromegrass, Downy [4, 15]: 50
Plant response rating, Bromegrass, Downy [4, 16]: 55
Plant response rating, Bromegrass, Downy [4, 17]: 90
Plant response rating, Bromegrass, Downy ([4]; Preemergence, 250 g ai/ha, scale 0 to 100 (0 no effect, 100 complete control)): 98
Plant response rating, Oat, Wild (wild oat (Avena fatua); [19]): 95
Plant response rating, Oat, Wild (wild oat (Avena fatua); [12]): 98
Plant response rating, Oat, Wild (wild oat (Avena fatua); [13]): 98
Plant response rating, Oat, Wild (wild oat (Avena fatua); [14]): 100
Plant response rating, Oat, Wild (wild oat (Avena fatua); [15]): 10
Plant response rating, Oat, Wild (wild oat (Avena fatua); [16]): 70
Plant response rating, Oat, Wild (wild oat (Avena fatua); [17]): 80
Plant response rating, Oat, Wild (wild oat (Avena fatua); [18]): 85
Plant response rating, Lambsquarters [5, 19]: 0
Plant response rating, Lambsquarters [5, 12]: 0
Plant response rating, Lambsquarters [5, 13]: 0
Plant response rating, Lambsquarters [5, 14]: 0
Plant response rating, Lambsquarters [5, 15]: 0
Plant response rating, Lambsquarters [5, 16]: 0
Plant response rating, Lambsquarters [5, 17]: 0
Plant response rating, Lambsquarters [5, 18]: 0
Blackgrass plant response rating ([6]; 250 g ai/ha, preemergence, 0-100 scale): 100
Plant response rating, Blackgrass [6, 19]: 90
Plant response rating, Blackgrass [6, 12]: 95
Plant response rating, Blackgrass [6, 13]: 95
Plant response rating, Blackgrass [6, 14]: 98
Plant response rating, Blackgrass [6, 15]: 100
Plant response rating, Blackgrass [6, 16]: 100
Plant response rating, Blackgrass [6, 17]: 100
Plant response rating, Galium [7, 20]: 0
Plant response rating, Galium ([7]; 62 g ai/ha, scale 0 to 100): 0
Plant response rating, Galium ([7]; 125 g ai/ha, scale 0 to 100): 10
Plant response rating, Galium ([7]; 250 g ai/ha, scale 0 to 100): 100
Plant response rating, Nutsedge, Yellow [8, 12]: 0
Plant response rating, Nutsedge, Yellow [8, 13]: 0
Plant response rating, Nutsedge, Yellow [8, 14]: 0
Plant response rating, Nutsedge, Yellow [8, 15]: 0
Plant response rating, Nutsedge, Yellow [8, 16]: 0
Plant response rating, Nutsedge, Yellow [8, 18]: 0
Plant response rating, Sunflower [9, 20]: 0
Plant response rating, Sunflower ([9]; 62 g ai/ha, scale 0 to 100): 0
Plant response rating, Sunflower ([9]; 250 g ai/ha, scale 0 to 100): 60
Plant response rating, Pigweed [10, 19]: 0
Plant response rating, Pigweed [10, 12]: 0
Plant response rating, Pigweed [10, 13]: 0
Plant response rating, Pigweed [10, 14]: 0
Plant response rating, Pigweed [10, 15]: 0
Plant response rating, Pigweed [10, 16]: 0
Plant response rating, Pigweed [10, 17]: 0
Plant response rating, Pigweed [10, 18]: 0
Plant response rating, Corn (corn (Zea mays); [19]): 90
Plant response rating, Corn (corn (Zea mays); [12]): 95
Plant response rating, Corn (corn (Zea mays); [13]): 95
Plant response rating, Corn (corn (Zea mays); [15]): 50
Plant response rating, Corn (corn (Zea mays); [16]): 98
Plant response rating, Corn (corn (Zea mays); [17]): 100
Plant response rating, Corn (corn (Zea mays); [18]): 100
Plant response rating, Velvetleaf [11, 19]: 0
Plant response rating, Velvetleaf [11, 12]: 0
Plant response rating, Velvetleaf [11, 13]: 0
Plant response rating, Velvetleaf [11, 14]: 0
Plant response rating, Velvetleaf [11, 15]: 0
Plant response rating, Velvetleaf [11, 16]: 0
Plant response rating, Velvetleaf [11, 18]: 0
